Test results from ChEMBL document CHEMBL4152280, “Binding mechanism investigations guiding the synthesis of novel condensed 1,4-dihydropyridine derivatives with L-/T-type calcium channel blocking activity” (Eur J Med Chem, 2018).
The source made the active and inactive calls. The rule behind the calls is not given here.

The molecules below were run against Cav1.2 (voltage-dependent L-type calcium channel subunit alpha-1C) (Rattus norvegicus, UniProt P22002) (assay: Inhibition of rat Cav1.2 at 10 uM at -90 mV holding potential by patch clamp electrophysiology assay relative to control).
Sequence of Cav1.2 (voltage-dependent L-type calcium channel subunit alpha-1C) (P22002 whole entry): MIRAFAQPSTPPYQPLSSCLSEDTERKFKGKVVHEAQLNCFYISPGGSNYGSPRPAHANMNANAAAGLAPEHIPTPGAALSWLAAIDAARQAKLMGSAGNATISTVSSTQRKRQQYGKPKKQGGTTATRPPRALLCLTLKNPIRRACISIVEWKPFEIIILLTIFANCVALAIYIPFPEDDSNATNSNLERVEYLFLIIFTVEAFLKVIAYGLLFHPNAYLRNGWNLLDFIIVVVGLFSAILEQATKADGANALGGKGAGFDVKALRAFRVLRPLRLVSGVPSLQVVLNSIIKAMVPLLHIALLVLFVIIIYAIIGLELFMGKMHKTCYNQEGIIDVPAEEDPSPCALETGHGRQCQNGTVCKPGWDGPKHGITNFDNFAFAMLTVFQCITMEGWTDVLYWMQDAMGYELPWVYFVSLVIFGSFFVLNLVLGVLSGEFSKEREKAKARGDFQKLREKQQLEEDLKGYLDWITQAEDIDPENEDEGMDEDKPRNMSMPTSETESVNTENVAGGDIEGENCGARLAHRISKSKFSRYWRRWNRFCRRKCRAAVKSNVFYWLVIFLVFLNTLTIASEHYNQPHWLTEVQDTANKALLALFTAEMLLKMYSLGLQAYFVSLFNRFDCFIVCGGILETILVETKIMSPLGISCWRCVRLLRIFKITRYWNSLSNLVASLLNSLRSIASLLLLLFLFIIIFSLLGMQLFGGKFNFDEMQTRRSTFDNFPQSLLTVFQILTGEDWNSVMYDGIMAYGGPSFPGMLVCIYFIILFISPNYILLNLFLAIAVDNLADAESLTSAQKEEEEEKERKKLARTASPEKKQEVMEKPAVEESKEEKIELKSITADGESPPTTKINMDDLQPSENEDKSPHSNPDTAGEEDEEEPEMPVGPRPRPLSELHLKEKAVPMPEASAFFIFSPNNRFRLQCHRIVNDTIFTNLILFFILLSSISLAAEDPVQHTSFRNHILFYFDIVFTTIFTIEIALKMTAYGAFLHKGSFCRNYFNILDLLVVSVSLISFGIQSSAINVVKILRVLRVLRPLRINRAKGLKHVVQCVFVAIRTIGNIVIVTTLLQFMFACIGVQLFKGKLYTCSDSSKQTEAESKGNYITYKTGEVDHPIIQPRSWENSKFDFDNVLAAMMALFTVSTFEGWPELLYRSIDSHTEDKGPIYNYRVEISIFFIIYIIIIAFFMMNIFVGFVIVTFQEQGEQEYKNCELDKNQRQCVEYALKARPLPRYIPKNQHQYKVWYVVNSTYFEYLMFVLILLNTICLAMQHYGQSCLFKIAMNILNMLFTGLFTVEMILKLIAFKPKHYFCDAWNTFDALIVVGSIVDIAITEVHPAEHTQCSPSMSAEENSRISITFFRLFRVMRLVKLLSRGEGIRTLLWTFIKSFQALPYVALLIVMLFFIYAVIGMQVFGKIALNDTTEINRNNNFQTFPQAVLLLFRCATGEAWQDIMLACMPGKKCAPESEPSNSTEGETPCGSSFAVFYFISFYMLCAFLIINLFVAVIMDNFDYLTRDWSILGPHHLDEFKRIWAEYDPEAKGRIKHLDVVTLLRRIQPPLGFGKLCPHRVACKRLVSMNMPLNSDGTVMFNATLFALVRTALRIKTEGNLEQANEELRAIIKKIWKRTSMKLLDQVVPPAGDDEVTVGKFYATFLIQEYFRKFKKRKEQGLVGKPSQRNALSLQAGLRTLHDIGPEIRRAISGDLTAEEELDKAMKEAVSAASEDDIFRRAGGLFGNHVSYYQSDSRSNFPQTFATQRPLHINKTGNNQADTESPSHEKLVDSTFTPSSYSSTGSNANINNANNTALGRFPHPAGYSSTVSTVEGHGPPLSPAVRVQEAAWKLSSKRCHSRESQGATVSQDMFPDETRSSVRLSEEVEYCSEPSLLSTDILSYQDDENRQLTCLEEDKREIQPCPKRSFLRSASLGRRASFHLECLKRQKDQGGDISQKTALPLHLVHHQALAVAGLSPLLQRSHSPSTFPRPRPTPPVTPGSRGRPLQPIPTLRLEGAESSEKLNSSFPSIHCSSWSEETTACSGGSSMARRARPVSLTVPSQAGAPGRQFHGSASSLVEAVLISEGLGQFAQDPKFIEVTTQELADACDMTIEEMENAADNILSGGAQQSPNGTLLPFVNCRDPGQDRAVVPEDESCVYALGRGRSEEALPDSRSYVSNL

Compound	inhibition at 10 µM [%]
COC(=O)C1=C(C)NC2=C(C(=O)C(C)(C)CC2)C1c1cc([N+](=O)[O-])ccc1O (centres undefined)	< 30
CC1=C(C(=O)OC(C)(C)C)C(c2cc([N+](=O)[O-])ccc2O)C2=C(CCC(C)(C)C2=O)N1 (centres undefined)	< 30
CC1=C(C(=O)OCC(C)C)C(c2cc([N+](=O)[O-])cc(Br)c2O)C2=C(CCC(C)(C)C2=O)N1 (centres undefined)	15
CCOC(=O)C1=C(C)NC2=C(C(=O)C(C)(C)CC2)C1c1cc([N+](=O)[O-])ccc1O (centres undefined)	70
CCOC(=O)C1=C(C)NC2=C(C(=O)C(C)(C)CC2)C1c1cc(Br)cc([N+](=O)[O-])c1O (centres undefined)	50
CC1=C(C(=O)OCC(C)C)C(c2cc([N+](=O)[O-])ccc2O)C2=C(CCC(C)(C)C2=O)N1 (centres undefined)	70
CC1=C(C(=O)OCC(C)C)C(c2cc([N+](=O)[O-])ccc2O)C2=C(CC(C)(C)CC2=O)N1 (centres undefined)	30
CC1=C(C(=O)OCc2ccccc2)C(c2cc([N+](=O)[O-])ccc2O)C2=C(CCC(C)(C)C2=O)N1 (centres undefined)	70
CC1=C(C(=O)OCC(C)C)C(c2cc([N+](=O)[O-])cc(Br)c2O)C2=C(CC(C)(C)CC2=O)N1 (centres undefined)	70
CC1=C(C(=O)OCC(C)C)C(c2cc(Br)cc([N+](=O)[O-])c2O)C2=C(CCC(C)(C)C2=O)N1 (centres undefined)	10

Each molecule was assayed against Voltage-dependent T-type calcium channel subunit alpha-1H (Homo sapiens) (UniProt O95180) (assay: Inhibition of human Cav3.2 at 10 uM at -110 mV holding potential by patch clamp electrophysiology assay).
Sequence of Voltage-dependent T-type calcium channel subunit alpha-1H (Homo sapiens) (O95180 whole entry): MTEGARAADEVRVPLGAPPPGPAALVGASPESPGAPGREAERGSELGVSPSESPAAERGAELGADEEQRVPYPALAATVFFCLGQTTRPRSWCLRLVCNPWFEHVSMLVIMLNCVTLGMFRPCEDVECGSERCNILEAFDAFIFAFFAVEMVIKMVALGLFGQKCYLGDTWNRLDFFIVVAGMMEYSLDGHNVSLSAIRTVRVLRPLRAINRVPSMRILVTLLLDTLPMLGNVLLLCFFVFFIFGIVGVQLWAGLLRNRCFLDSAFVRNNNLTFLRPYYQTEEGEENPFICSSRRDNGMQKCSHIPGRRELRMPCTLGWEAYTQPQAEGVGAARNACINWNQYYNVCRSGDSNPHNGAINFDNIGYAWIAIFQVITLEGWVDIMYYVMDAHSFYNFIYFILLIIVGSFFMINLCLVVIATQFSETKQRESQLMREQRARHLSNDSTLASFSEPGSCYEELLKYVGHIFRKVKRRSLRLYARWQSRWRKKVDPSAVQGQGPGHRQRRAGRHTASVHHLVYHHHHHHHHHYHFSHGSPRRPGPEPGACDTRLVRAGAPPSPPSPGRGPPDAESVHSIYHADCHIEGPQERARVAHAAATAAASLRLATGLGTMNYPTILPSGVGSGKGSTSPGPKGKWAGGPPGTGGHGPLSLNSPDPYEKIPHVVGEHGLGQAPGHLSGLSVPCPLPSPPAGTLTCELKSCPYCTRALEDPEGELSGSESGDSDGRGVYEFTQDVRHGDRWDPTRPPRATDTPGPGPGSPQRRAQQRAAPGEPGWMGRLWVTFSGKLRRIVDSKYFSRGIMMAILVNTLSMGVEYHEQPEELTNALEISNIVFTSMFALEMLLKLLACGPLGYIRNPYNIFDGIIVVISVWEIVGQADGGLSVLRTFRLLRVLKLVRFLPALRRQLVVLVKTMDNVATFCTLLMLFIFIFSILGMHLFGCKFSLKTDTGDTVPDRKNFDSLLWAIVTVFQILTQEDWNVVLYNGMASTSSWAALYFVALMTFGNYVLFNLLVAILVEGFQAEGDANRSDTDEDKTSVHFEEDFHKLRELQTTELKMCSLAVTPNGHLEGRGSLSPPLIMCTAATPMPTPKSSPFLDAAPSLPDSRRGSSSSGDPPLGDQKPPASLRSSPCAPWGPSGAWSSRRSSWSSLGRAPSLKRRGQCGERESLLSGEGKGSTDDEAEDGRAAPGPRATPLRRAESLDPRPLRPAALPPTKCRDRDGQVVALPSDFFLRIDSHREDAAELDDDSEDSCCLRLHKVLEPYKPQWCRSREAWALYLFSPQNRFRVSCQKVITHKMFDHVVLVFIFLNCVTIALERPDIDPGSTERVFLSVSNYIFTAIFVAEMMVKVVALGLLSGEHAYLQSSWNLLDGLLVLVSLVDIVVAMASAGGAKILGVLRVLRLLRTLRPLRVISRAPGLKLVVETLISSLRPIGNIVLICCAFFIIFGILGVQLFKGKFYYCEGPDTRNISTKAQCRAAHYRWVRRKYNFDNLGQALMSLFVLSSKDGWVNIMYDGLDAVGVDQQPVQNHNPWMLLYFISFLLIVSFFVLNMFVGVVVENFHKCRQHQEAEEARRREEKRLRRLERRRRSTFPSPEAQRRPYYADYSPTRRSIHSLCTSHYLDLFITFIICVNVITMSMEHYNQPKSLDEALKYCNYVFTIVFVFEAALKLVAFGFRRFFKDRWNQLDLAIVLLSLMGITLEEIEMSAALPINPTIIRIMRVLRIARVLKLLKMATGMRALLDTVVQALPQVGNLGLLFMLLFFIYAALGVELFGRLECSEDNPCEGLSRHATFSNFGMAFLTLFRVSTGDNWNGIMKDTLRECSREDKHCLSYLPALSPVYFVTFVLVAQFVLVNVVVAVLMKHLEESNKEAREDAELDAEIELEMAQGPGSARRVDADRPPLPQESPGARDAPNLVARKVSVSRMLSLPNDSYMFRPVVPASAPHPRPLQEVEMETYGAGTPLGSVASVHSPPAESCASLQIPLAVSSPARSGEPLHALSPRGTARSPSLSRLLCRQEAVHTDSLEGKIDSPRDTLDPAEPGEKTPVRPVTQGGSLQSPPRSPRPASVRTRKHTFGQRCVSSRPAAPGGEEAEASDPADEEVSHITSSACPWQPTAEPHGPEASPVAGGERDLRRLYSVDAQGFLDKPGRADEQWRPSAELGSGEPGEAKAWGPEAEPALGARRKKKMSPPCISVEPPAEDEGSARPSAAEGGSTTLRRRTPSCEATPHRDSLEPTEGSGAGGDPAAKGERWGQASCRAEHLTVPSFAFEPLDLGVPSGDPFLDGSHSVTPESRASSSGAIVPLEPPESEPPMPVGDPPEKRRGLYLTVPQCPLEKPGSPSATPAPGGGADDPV

inhibition	Compound
Active	CCOC(=O)C1=C(C)NC2=C(C(=O)C(C)(C)CC2)C1c1ccc(O)c(C(F)(F)F)c1 (centres undefined)
Active	CC1=C(C(=O)OCC(C)C)C(c2cc([N+](=O)[O-])cc([N+](=O)[O-])c2O)C2=C(CCC(C)(C)C2=O)N1 (centres undefined)
Active	CCOC(=O)C1=C(C)NC2=C(C(=O)C(C)(C)CC2)C1c1cc(Br)cc([N+](=O)[O-])c1O (centres undefined)
Active	CC1=C(C(=O)OCC(C)C)C(c2ccc(O)c(C(F)(F)F)c2)C2=C(CCC(C)(C)C2=O)N1 (centres undefined)
